Source: patent US20230365639A1, “DEFENSIN FRAGMENT DERIVED LIPOPEPTIDES FOR TREATMENT OF DRUG-RESISTANT MICROORGANISMS” (priority 2020, published 2023)
In brackets after ≈: the same amount, converted by molar mass. Entries after “also recorded” stand apart in the source; their conditions may differ. Starred links: 1 amine or outer side, 2 acyl side, 3 side chain; linkers in the order of their positions; H or OH if unused. Non-standard residues stand in square brackets, D forms with d. Residues, ends and D or L forms follow the SMILES beside them. No end group written: not given here. ξ: configuration not given here. *: point of attachment. K(Pam) = CCCCCCCCCCCCCCCC(=O)NCCCC[C@H](N[*:1])C(=O)[*:2]; X1 = CCCCCCCCCCCCCCCC(=O)OCC(C*)OC(=O)CCCCCCCCCCCCCCC; Palmitoyl = CCCCCCCCCCCCCCCC(=O)*; AEEA = NCCOCCOCC(=O)O; ξC = NC(CS)C(=O)O

Tests used:
[1] = Cellular toxicity, lactate dehydrogenase (LDH) assay; type: cell-based
Procedure: (§1) Methods: Cellular toxicity was determined by Lactate dehydrogenase concentration and WST-1 cell proliferation assay as well as hemolysis assay.

[2] = Cellular toxicity, WST-1 cell proliferation assay; type: cell-based
Procedure: as §1

red blood cell = test: Hemolysis assay; type: cell-based
Procedure: as §1

[3] = system: bacteria from the ESKAPE panel; type: cell-based
Procedure: Methods: Broth microdilution assay. Log-phase bacteria were collected by centrifugation (2500 rpm, 10 min, 4° C.), washed twice with 10 mM sodium phosphate buffer containing 1% (w/v) TSB and the optical density at 600 nm was adjusted to 0.1. Approximately 5×10^5 CFU/ml bacteria were incubated with serial peptide concentrations (1.17-150 μM) in a final volume of 100 μl in 10 mM sodium phosphate buffer containing 1% (w/v) TSB for 2 hours at 37° C. After incubation, 100 μl of 6% TSB (w/v) was added and absorbance was measured at 600 nm (Tecan, Switzerland) and monitored for 18 hours. Afterwards, 100 μl per well was plated on LB agar to determine the number of viable bacteria microbiologically. Bactericidal activity was expressed as the LC99.9, the lowest concentration that killed ≥99.9% of bacteria.

[4] = Acute tolerability after oral administration; type: in vivo, C57BL/6N mice
Description: Methods: C57BL/6N mice were generated and maintained (including breeding and housing) at the animal facilities of the Helmholtz Centre for Infection Research (HZI) under enhanced specific pathogen-free (SPF) conditions (Stehr et al., 2009). Animals used in the experiments were gender and age matched. Female and male mice with an age of 8-12 weeks were used. Sterilized food and water ad libitum were provided. Mice were kept under a strict 12-hour light cycle (lights on at 7:00 am and off at […]) and housed in groups of two to six mice per cage. All mice were euthanized by asphyxiation with CO2 and cervical dislocation. All animal experiments were performed in agreement with the local government of Lower Saxony, Germany (approved permission No. 33.19-42502-04-18/2499).
Age- and gender-matched mice received two doses of peptides (0, 125 μg or 250 μg) solved in 100 μl PBS orally per day. Bodyweight and appearance were recorded. The following day, mice were sacrificed and stomach, kidney, spleen, liver, small intestine, cecum and colon were removed for histological scoring. Around 1 ml of blood was taken from the heart to measure inflammatory markers including creatinine in the kidney and the enzyme levels of glutamate-oxalacetate-transaminase (GOT) in the liver.

[5] = system: several pathogenic bacteria; test: Radial diffusion assay and MIC screening for antimicrobial activity; type: cell-based; conditions: radial diffusion assay and MIC determinations
Procedure: (§2) Methods: Log-phase bacteria were cultivated for up to 18 hours in TSB (TSB, Becton Dickinson, USA), washed and diluted to 4×10^6 CFU in 10 ml agar. Bacteria were incubated in 10 ml of 10 mM sodium phosphate, pH 7.4, containing 0.3 mg/ml of TSB powder and 1% (w/v) low EEO-agarose (AppliChem). Lipopeptides were pipetted into punched wells and diffused into the gel for 3 hours at 37° C. After that, a nutrient-rich gel with 6% TSB (w/v) and 1% agarose in 10 mM sodium phosphate buffer was poured on top of the first gel and incubated for up to 24 hours at 37° C. Then the diameter of inhibition zones was measured.
(§3) Clinical isolates of A. baumannii DSM30007, E. faecium DSM2918, K. pneumoniae DSM30104 and P. aeruginosa DSM1117 were provided by the Department for Laboratory Medicine at Robert-Bosch-Hospital Stuttgart, Germany. C. rodentium DSM16636 and E. coli DSM8695 were obtained from the Deutsche Sammlung von Mikroorganismen and Zellkultur GmbH Braunschweig, Germany. […]

C. albicans = test: Broth microdilution assay, antifungal activity; type: cell-based
Procedure: (§4) Methods: Broth microdilution assay. Candida was cultured in TSB over night at 37° C., centrifuged (1500 rpm, 10 min, RT) and washed twice with 10 mM sodium phosphate buffer containing 1% (w/v) TSB. Candida cells were counted and approximately 5×10^5 CFU/ml fungi were incubated with serial peptide concentrations (1.17-150 μM) in a final volume of 100 μl in 10 mM sodium phosphate buffer containing 1% (w/v) TSB for 2 hours at 37° C. After incubation, 100 μl of 6% TSB (w/v) was added and absorbance was measured at 600 nm (Tecan, Switzerland) and monitored for 18 hours. Afterwards, 100 μl per well was plated on YPD agar to determine the number of viable bacteria microbiologically.

C. tropicalis = test: Broth microdilution assay, antifungal activity; type: cell-based
Procedure: as §4

ypuA promoter = ypuA promoter luciferase reporter gene assay; type: cell-based, Bacillus subitilis 1S34
Procedure: A specific bacterial reporter strain with the genetic background of Bacillus subitilis 1S34, carrying the promoter of the ypuA gene, fused to the firefly luciferase reporter gene, was used to identify cell envelope-related damage caused by treatment with antimicrobial compounds. Bacteria were cultured to an OD600 of 0.9 in LB broth with 5 μg/ml erythromycin at 37° C. and diluted to an OD600 of 0.02. Serial peptide dilutions (0.15-150 μM) were prepared in a microtiter plate and incubated with the adjusted bacterial suspension at 37° C. for 1 hour. Subsequently, citrate buffer (0.1 M, pH 5) containing 2 mM luciferin (Iris Biotech, Germany) was added and luminescence was measured using a microplate reader (Tecan, Switzerland).

S. aureus NCTC8325 = test: Membrane potential assay with DiOC2(3); type: cell-based; conditions: 30 min treatment
Procedure: S. aureus NCTC8325 was grown to log-phase in LB+0.1% glucose, harvested and the optical density at 600 nm (OD600) was adjusted to 0.5. Bacteria were incubated with 30 μM 3,3′-diethyloxacarbocyanine iodide (DiOC2(3), Invitrogen™) for 15 min in the dark and treated with serial peptide concentrations for 30 min. The protonophore carbonyl cyanide m-chlorophenyl hydrazone (CCCP, Sigma Aldrich) was used as a positive control and DMSO or 0.01% acetic acid as negative control. Fluorescence was measured at an excitation wavelength of 485 nm and two emission wavelengths, 530 nm (green) and 630 (nm) red, using a microplate reader (Tecan, Switzerland).

S. Typhimurium = test: Radial diffusion assay; type: cell-based
Procedure: as §2, §3

In the case of `CCCCCCCCCCCCCCCC(=O)N[C@@H](CCCNC(=N)N)C(=O)NCC(=O)N[C@@H](CCCCN)C(=O)N[C@@H](C)C(=O)N[C@@H](CCCCN)C(=O)N[C@@H](CS)C(=O)N[C@@H](CS)C(=O)N[C@@H](CCCCN)C(=O)O` [Pam-2] (Palmitoyl-RGKAKCCK-OH), the “LDH activity (cytotoxicity)” value [1] is reported as “some LDH activity”, the “metabolic activity (WST-1 assay)” value [2] is reported as “modest decrease” and the “red blood cell disruption (hemolysis)” value (red blood cell) is reported as “minimal red blood cell disruption”.
For `CCCCCCCCCCCCCCCC(=O)NCCOCCOCC(=O)N[C@@H](CCCNC(=N)N)C(=O)NCC(=O)N[C@@H](CCCCN)C(=O)N[C@@H](C)C(=O)N[C@@H](CCCCN)C(=O)N[C@@H](CS)C(=O)N[C@@H](CS)C(=O)N[C@@H](CCCCN)C(=O)O` [Pam-3] ({Palmitoyl-AEEA}-RGKAKCCK-OH), the MIC [3] was 9.38 µM (≈ 12 µg/mL), the “LDH activity (cytotoxicity)” value [1] was “little LDH activity” and the “metabolic activity (WST-1 assay)” value [2] was “slight decrease”. The “red blood cell disruption (hemolysis)” value (red blood cell) was “modest red blood cell disruption”, the “histological examination of gastrointestinal, liver and kidney tissues” value ([4]; mouse, in vivo, po) was “no alterations” and the “serum level of creatinine” value ([4]; mouse, in vivo, po) was “no significant differences between the groups”. For the same compound, the “serum level of glutamic oxaloacetic transaminase (GOT)” value ([4]; mouse, in vivo, po) was “no significant differences between the groups” and the “acute toxicity (histological analysis and serum markers)” value ([4]; oral, mice, 24 hours after application, 125 or 250 μg doses) was “did not reveal any acute toxicity; also recorded: No danger signals”.
In the case of “Pam-Lys(Pam)-RGKAKCCK ({Palmitoyl-K(Pam)}-RGKAKCCK; cysteine pairing not given here) [Pam-5, octapeptide lipopeptide containing lysine as spacer]”, the “antimicrobial activity, inhibition of bacterial growth of the tested strains” value [5] is reported as “generally inactive”, the bactericidal activity ([3]; broth microdilution, 1.17-150 μM peptide, 2 hours) is reported as “moderate effects” and the “antifungal activity against C. albicans” value (C. albicans) is reported as “modest activity; also recorded: some efficacy”. The “antifungal activity against C. tropicalis” value (C. tropicalis) was “good activity; also recorded: highly effective”, the “cell envelope damage (ypuA reporter)” value (ypuA promoter) was “little cell envelope damage” and the “breakdown of the membrane potential” value (S. aureus NCTC8325) was “most pronounced”. For the same compound, the “LDH activity (cytotoxicity)” value [1] was “no LDH activity”, the “metabolic activity (WST-1 assay)” value [2] was “normal metabolic activity” and the “red blood cell disruption (hemolysis)” value (red blood cell) was “minimal red blood cell disruption”.
For “RGKAKCCK (Cleavage product of defensin) [octapeptide, the C-terminal eight amino acids of human beta-defensin 1, non-modified]”, the “inhibition of S. Typhimurium growth” value (S. Typhimurium) was “failed to inhibit”.
With `CCCCCCCCCCCCCCCC(=O)NC(CSCC(COC(=O)CCCCCCCCCCCCCCC)OC(=O)CCCCCCCCCCCCCCC)C(=O)N[C@@H](CCCNC(=N)N)C(=O)NCC(=O)N[C@@H](CCCCN)C(=O)N[C@@H](C)C(=O)N[C@@H](CCCCN)C(=O)N[C@@H](CS)C(=O)N[C@@H](CS)C(=O)N[C@@H](CCCCN)C(=O)O` (stereo partly drawn) [Pam-4] (Palmitoyl-[ξC](X1)RGKAKCCK-OH) the “LDH activity (cytotoxicity)” value [1] was “no LDH activity”, the “metabolic activity (WST-1 assay)” value [2] was “normal metabolic activity” and the “red blood cell disruption (hemolysis)” value (red blood cell) was “minimal red blood cell disruption”.
